Source: patent publication US11987586B1 (TAKEDA PHARMACEUTICAL COMPANY LIMITED, priority 2022, dated 2024)

Each molecule was assayed against T1, human OX2 receptor (Homo sapiens, UniProt O43614) (assay: Measurement of orexin type 2 receptor agonist activity (calcium fluorescence, Fluo-4, FDSS)). Settings: 3 uM test compound; CHO cells expressing human OX2 receptor; DMSO = 0%, 10 nM orexin A (human) = 100%.
T1 construct: expressed in transfected cells
T1 sequence (O43614 1-444): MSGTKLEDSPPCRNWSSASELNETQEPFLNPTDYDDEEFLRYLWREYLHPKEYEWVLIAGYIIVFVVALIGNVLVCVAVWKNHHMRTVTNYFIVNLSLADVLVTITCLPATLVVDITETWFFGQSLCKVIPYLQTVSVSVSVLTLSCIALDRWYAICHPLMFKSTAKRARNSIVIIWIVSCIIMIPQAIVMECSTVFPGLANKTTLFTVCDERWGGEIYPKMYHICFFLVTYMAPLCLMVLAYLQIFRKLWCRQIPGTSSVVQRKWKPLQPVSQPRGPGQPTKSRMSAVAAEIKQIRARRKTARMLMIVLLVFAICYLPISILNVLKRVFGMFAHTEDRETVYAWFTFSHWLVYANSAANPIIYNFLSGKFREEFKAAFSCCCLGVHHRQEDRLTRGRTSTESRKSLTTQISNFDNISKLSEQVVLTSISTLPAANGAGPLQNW
Assay type: cell-based
Description: In order to obtain cell clones that stably express human orexin type 2 receptor, human orexin type 2 (residues 1-444, NCBI Reference Sequence: AK314279) was constructed in a pcDNA3.1 (+) vector (Invitrogen) to express in mammalian cells. This plasmid DNA was transfected into CHO-K1 cells by electroporation, and stable clones were obtained by limiting dilution using resistance to G418 as a selection marker.
CHO cells in which human OX2 receptor was forcibly expressed were seeded at 10,000 cells/well into a 384-well black transparent bottom plate (BD falcon), and were incubated at 37° C., 5% CO2 for 1 day after incubation at room temperature for 30 minutes. After removing the cell plate medium, assay buffer containing calcium indicator A (HBSS (Thermo Fisher Scientific), 20 mM HEPES (Thermo Fisher Scientific), 0.1% BSA (Sigma-Aldrich), 2.5 μg/mL Fluo-4 AM (Dojin Kagaku), 0.08% Pluronic F127 (Dojin Kagaku), 1.25 mM probenecid (Dojin Kagaku)) was added at 30 μL/well. After incubation in a 5% CO2 incubator at 37° C. for 30 minutes, it was incubated at room temperature for another 30 minutes. Add 10 μL/well of the test compound diluted with assay buffer B (HBSS, 20 mM HEPES, 0.1% BSA), and use FDSS μCELL (Hamamatsu Photonics) to measure the fluorescence value every 1 second for 1 minute, and then every 2 seconds for 1 minute. It was measured for 1 minute and 40 seconds. The amount of fluorescence value when DMSO is added instead of the test compound is defined as 0%, and the amount of fluorescence value when orexin A (human) (Peptide Institute) with a final concentration of 10 nM is added is defined as 100%. The activity (%) of the test compound was calculated.

SMILES | OX2R agonist activity (3 uM, %) [%]
Cc1c(-c2noc3cccc(-c4c(F)cccc4F)c23)c(=O)n2n1CC(NS(C)(=O)=O)C2 (single isomer, unassigned) [Example 340, N-{(2R*)-6-[4-(2,6-difluorophenyl)-1,2-benzoxazol-3-yl]-7-methyl-5-oxo-2,3-dihydro-1H,5H-pyrazolo[1,2-a]pyrazol-2-yl}methanesulfonamide] | 92
CCS(=O)(=O)NC1CN2C(=O)N(c3noc4cccc(-c5c(F)cccc5F)c34)C[C@@H]2C1C (stereo in doubt) [Example 158, N-{(6R*,7R*,7aS)-2-[4-(2,6-difluorophenyl)-1,2-benzoxazol-3-yl]-7-methyl-3-oxohexahydro-1H-pyrrolo[1,2-c]imidazol-6-yl}ethanesulfonamide] | 103
CCS(=O)(=O)NC1CN2C(=O)N(c3noc4cccc(-c5c(F)cccc5F)c34)C[C@@H]2C1C (stereo in doubt) [Example 183, N-{(6R*,7S*,7aS)-2-[4-(2,6-difluorophenyl)-1,2-benzoxazol-3-yl]-7-methyl-3-oxohexahydro-1H-pyrrolo[1,2-c]imidazol-6-yl}ethanesulfonamide] | 101
CCS(=O)(=O)N[C@H]1Cc2cn(-c3cnn4cccc(-c5c(F)cccc5F)c34)c(=O)n2C1 [Example 2, N-{(6S)-2-[4-(2,6-difluorophenyl)pyrazolo[1,5-a]pyridin-3-yl]-3-oxo-2,5,6,7-tetrahydro-3H-pyrrolo[1,2-c]imidazol-6-yl}ethanesulfonamide] | 108
CCS(=O)(=O)N[C@@H]1CN2C(=O)N(c3noc4cccc(-c5c(F)cccc5F)c34)C[C@@H]2C1(C)C [Example 6, N-{(6S,7aS)-2-[4-(2,6-difluorophenyl)-1,2-benzoxazol-3-yl]-7,7-dimethyl-3-oxohexahydro-1H-pyrrolo[1,2-c]imidazol-6-yl}ethanesulfonamide] | 96
CCS(=O)(=O)N[C@@H]1CN2C(=O)N(c3noc4ccc(F)c(-c5c(F)cccc5F)c34)C[C@@H]2C1(F)F [Example 7, N-{(6R,7aR)-2-[4-(2,6-difluorophenyl)-5-fluoro-1,2-benzoxazol-3-yl]-7,7-difluoro-3-oxohexahydro-1H-pyrrolo[1,2-c]imidazol-6-yl}ethanesulfonamide] | 105
CCS(=O)(=O)N[C@@H]1CN2C(=O)N(c3noc4cc(Cl)cc(-c5c(F)cc(F)cc5F)c34)C[C@@H]2C1(F)F [Example 9, N-{(6R,7aR)-2-[6-chloro-4-(2,4,6-trifluorophenyl)-1,2-benzoxazol-3-yl]-7,7-difluoro-3-oxohexahydro-1H-pyrrolo[1,2-c]imidazol-6-yl}ethanesulfonamide] | 92
CCS(=O)(=O)N[C@H]1Cc2c(C)n(-c3noc4cccc(-c5c(F)cccc5F)c34)c(=O)n2C1 [Example 12, N-{(6S)-2-[4-(2,6-difluorophenyl)-1,2-benzoxazol-3-yl]-1-methyl-3-oxo-2,5,6,7-tetrahydro-3H-pyrrolo[1,2-c]imidazol-6-yl}ethanesulfonamide] | 105
CNS(=O)(=O)N[C@@H]1CN2C(=O)N(c3noc4cccc(-c5c(F)cccc5F)c34)C[C@@H]2C1(F)F [Example 17, N-{(6R,7aR)-2-[4-(2,6-difluorophenyl)-1,2-benzoxazol-3-yl]-7,7-difluoro-3-oxohexahydro-1H-pyrrolo[1,2-c]imidazol-6-yl}-N′-methylsulfuric diamide] | 104
COCS(=O)(=O)N[C@H]1C[C@H]2CN(c3noc4cccc(-c5c(F)cccc5F)c34)C(=O)N2C1 [Example 20, N-{(6S,7aS)-2-[4-(2,6-difluorophenyl)-1,2-benzoxazol-3-yl]-3-oxohexahydro-1H-pyrrolo[1,2-c]imidazol-6-yl}-1-methoxymethanesulfonamide] | 97
CCS(=O)(=O)N[C@H]1C[C@H]2CN(c3noc4cccc(-c5c(F)ccc(F)c5F)c34)C(=O)N2C1 [Example 21, N-{(6S,7aS)-3-oxo-2-[4-(2,3,6-trifluorophenyl)-1,2-benzoxazol-3-yl]hexahydro-1H-pyrrolo[1,2-c]imidazol-6-yl}ethanesulfonamide] | 81
CS(=O)(=O)N[C@@H]1CN2C(=O)N(c3noc4cc(Cl)cc(-c5c(F)cc(F)cc5F)c34)C[C@@H]2C1(F)F [Example 25, N-{(6R,7aR)-2-[6-chloro-4-(2,4,6-trifluorophenyl)-1,2-benzoxazol-3-yl]-7,7-difluoro-3-oxohexahydro-1H-pyrrolo[1,2-c]imidazol-6-yl}methanesulfonamide] | 96
CS(=O)(=O)N[C@H]1Cc2cn(-c3noc4cccc(-c5c(F)cccc5F)c34)c(=O)n2C1 [Example 26, N-{(6S)-2-[4-(2,6-difluorophenyl)-1,2-benzoxazol-3-yl]-3-oxo-2,5,6,7-tetrahydro-3H-pyrrolo[1,2-c]imidazol-6-yl}methanesulfonamide] | 97
CN(C)S(=O)(=O)N[C@H]1C[C@H]2CN(c3noc4cccc(-c5c(F)cccc5F)c34)C(=O)N2C1 [Example 28, N′-{(6S,7aS)-2-[4-(2,6-difluorophenyl)-1,2-benzoxazol-3-yl]-3-oxohexahydro-1H-pyrrolo[1,2-c]imidazol-6-yl}-N,N-dimethylsulfuric diamide] | 106
O=C1N(c2noc3cccc(-c4c(F)cccc4F)c23)C[C@@H]2C[C@H](NS(=O)(=O)CF)CN12 [Example 29, N-{(6S,7aS)-2-[4-(2,6-difluorophenyl)-1,2-benzoxazol-3-yl]-3-oxohexahydro-1H-pyrrolo[1,2-c]imidazol-6-yl}-1-fluoromethanesulfonamide] | 101
CCS(=O)(=O)N[C@H]1C[C@H]2CN(c3noc4c(C)ccc(-c5c(F)cccc5F)c34)C(=O)N2C1 [Example 30, N-{(6S,7aS)-2-[4-(2,6-difluorophenyl)-7-methyl-1,2-benzoxazol-3-yl]-3-oxohexahydro-1H-pyrrolo[1,2-c]imidazol-6-yl}ethanesulfonamide] | 94
CCS(=O)(=O)N[C@H]1C[C@H]2CN(c3noc4cccc(-c5c(F)cccc5C(F)(F)F)c34)C(=O)N2C1 [Example 32, N-[ (6S,7aS)-2-{4-[2-fluoro-6-(trifluoromethyl)phenyl]-1,2-benzoxazol-3-yl}-3-oxohexahydro-1H-pyrrolo[1,2-c]imidazol-6-yl] ethanesulfonamide] | 94
CCS(=O)(=O)N[C@@H]1CN2C(=O)N(c3noc4cccc(-c5c(F)cccc5F)c34)C[C@@H]2C1(F)F [Example 33, N-{(6R,7aR)-2-[4-(2,6-Difluorophenyl)-1,2-benzoxazol-3-yl]-7,7-difluoro-3-oxohexahydro-1H-pyrrolo[1,2-c]imidazol-6-yl}ethanesulfonamide] | 108
CS(=O)(=O)N[C@@H]1CN2C(=O)N(c3noc4cccc(-c5c(F)cccc5F)c34)C[C@@H]2C1(F)F [Example 34, N-{(6R,7aR)-2-[4-(2,6-Difluorophenyl)-1,2-benzoxazol-3-yl]-7,7-difluoro-3-oxohexahydro-1H-pyrrolo[1,2-c]imidazol-6-yl}methanesulfonamide] | 106
